Experimental findings from ChEMBL document CHEMBL4699538 (Bioorg Med Chem Lett, 2020) are described below.

For data set [1], the target named is Dihydroorotate dehydrogenase (quinone), mitochondrial (Homo sapiens, UniProt Q02127). Briefly: Inhibition of human DHODH.
The next data set concerns MOLM-13. Briefly: Antiproliferative activity against human MOLM-13 cells. The class given is functional, cell-based.
Data set [2] can be described thus: Plasma protein binding in mouse assessed as unbound fraction. It counts as ADME, cell-free.
Data set [3] can be described thus: Oral bioavailability in C57 mouse at 10 mg/kg. The class given is ADME, organism-based. Conditions: in vivo.
A short description of data set [4]: Half life in C57 mouse at 10 mg/kg, po or 2 mg/kg, iv. It counts as ADME, organism-based. Conditions: in vivo.
The nature of data set [5]: Plasma protein binding in human assessed as unbound fraction. It counts as ADME, cell-free.
The nature of data set [6]: Volume of distribution at steady state in C57 mouse at 10 mg/kg, po or 2 mg/kg, iv. The class given is ADME, organism-based. Conditions: in vivo, read-out: Vdss.
Data set [7] in a line: Clearance in C57 mouse at 10 mg/kg, po or 2 mg/kg, iv. It counts as ADME, organism-based. The following applies: in vivo.
A short description of data set [8]: Metabolic stability in human liver microsomes assessed as half life. It counts as ADME, Microsome. (Microsomes from liver hold many membrane-bound enzymes, among them those of drug oxidation.)
Data set [9] is described as follows: Metabolic stability in mouse liver microsomes assessed as half life. The class given is ADME, Microsome.

pIC50: −log10 of the molar value.

Chain of Dihydroorotate dehydrogenase (quinone), mitochondrial (Q02127 whole entry): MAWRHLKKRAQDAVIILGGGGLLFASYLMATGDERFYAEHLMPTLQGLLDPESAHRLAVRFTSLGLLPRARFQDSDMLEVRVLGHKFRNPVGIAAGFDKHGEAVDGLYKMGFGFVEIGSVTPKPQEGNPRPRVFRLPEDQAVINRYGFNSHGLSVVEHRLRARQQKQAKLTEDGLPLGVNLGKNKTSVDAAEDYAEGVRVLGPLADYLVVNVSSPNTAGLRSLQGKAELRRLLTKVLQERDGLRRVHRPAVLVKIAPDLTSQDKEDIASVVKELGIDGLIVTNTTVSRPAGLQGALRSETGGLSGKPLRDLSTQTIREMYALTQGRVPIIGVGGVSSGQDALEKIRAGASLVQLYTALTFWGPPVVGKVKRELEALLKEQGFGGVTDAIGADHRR

In general, pIC50 refers to the IC50 on a negative log10 scale, so that one unit is a factor of ten. Lower therefore signals a high IC50. Turning to `Cc1c(-c2ccc(-c3ccccc3F)cc2)nc2ccc(F)cc2c1C(=O)C(F)(F)F`, the pIC50 in [1] was 7.13; with MOLM-13 (Homo sapiens, MOLM-13), below 5.52.

Turning to `Cc1c(-c2ccc(-c3ccccc3F)cc2)nc2ccc(F)cc2c1CO`, the pIC50 was 6.78 in data set [1] and 6.15 with MOLM-13 (Homo sapiens, MOLM-13).

What is called half-life is the time in which the quantity being followed falls by half. For the molecule `CONC(=O)c1c(C)c(-c2ccc(-c3ccccc3F)cc2)nc2ccc(F)cc12`, the Fu in data set [2] was determined as 0.77%; in data set [5] it was 0.55%. Moreover, in data set [3], the bioavailability turned out to be 108%. In addition, the half-life is 2.35 h in [4], above 3 h in [8] and 0.95 h in data set [9]. Besides, the Vd in [6] worked out at 1.15 L/kg. Besides, the negative-log IC50 (pIC50) in data set [1] is 9.92; in the data set with MOLM-13 (Homo sapiens, MOLM-13), 8.05. In addition, the clearance in [7] is 5.09 mL/min/kg.

Take `Cc1c(-c2ccc(-c3ccccc3F)cc2)nc2ccc(F)cc2c1C(=O)NS(C)(=O)=O`: the pIC50 was 7.49 in [1] and 6.52 with MOLM-13 (Homo sapiens, MOLM-13).

As to `COC(=O)NC(=O)c1c(C)c(-c2ccc(-c3ccccc3F)cc2)nc2ccc(F)cc12`, the pIC50 is 5.90 in data set [1] and 6.39 in the data set on MOLM-13 (Homo sapiens, MOLM-13).

For the molecule `Cc1c(-c2ccc(-c3ccccc3F)cc2)nc2ccc(F)cc2c1C(=O)O` [BREQUINAR], the Fu in data set [2] was determined as 0.73%; in data set [5] it was 0.39%. The bioavailability in data set [3] turned out to be 72%. The Vd in data set [6] was determined as 0.3 L/kg. In [7], this molecule registered a clearance of 0.2 mL/min/kg. Also, the half-life in data set [8] and in [9] was above 3 h in each case. Also, in the data set with MOLM-13 (molm-13), the negative logarithm of the IC50 (pIC50) was 7.22.

Take `Cc1c(-c2ccc(-c3ccccc3F)cc2)nc2ccc(F)cc2c1-c1noc(=O)[nH]1`: the pIC50 in data set [1] was 5.81; in the data set with MOLM-13 (Homo sapiens, MOLM-13), below 5.52.

On to `CCONC(=O)c1c(C)c(-c2ccc(-c3ccccc3F)cc2)nc2ccc(F)cc12`, for which the pIC50 in [1] is 8.38; in the data set on MOLM-13 (Homo sapiens, MOLM-13), 7.48. Also, the half-life was above 3 h in data set [8] and 0.3 h in data set [9].

For `Cc1c(-c2ccc(-c3ccccc3F)cc2)nc2ccc(F)cc2c1C(=O)NO`, the pIC50 in data set [1] is 8.85; in the data set on MOLM-13 (Homo sapiens, MOLM-13), 7.64. Moreover, the half-life in data set [8] was above 3 h; in [9], 0.6 h.

`Cc1c(-c2ccc(-c3ccccc3F)cc2)nc2ccc(F)cc2c1C(=O)NC#N`: the negative-log IC50 (pIC50) in data set [1] is 6.94; with MOLM-13 (Homo sapiens, MOLM-13), below 5.52.

In the case of `Cc1c(-c2ccc(-c3ccccc3F)cc2)nc2ccc(F)cc2c1C(O)C(F)(F)F` (stereo not given), the pIC50 in data set [1] was 6.09; with MOLM-13 (Homo sapiens, MOLM-13), 6.19.

Turning to `Cc1c(-c2ccc(-c3ccccc3F)cc2)nc2ccc(F)cc2c1-c1nnn[nH]1`, the pIC50 in data set [1] is 6.65; in the data set on MOLM-13 (Homo sapiens, MOLM-13), below 5.52.

On to `Cc1c(-c2ccc(-c3ccccc3F)cc2)nc2ccc(F)cc2c1C(F)F`, for which the pIC50 in [1] was 6.80; with MOLM-13 (Homo sapiens, MOLM-13) it was below 5.52.

In the case of `Cc1c(-c2ccc(-c3ccccc3F)cc2)nc2ccc(F)cc2c1C(N)=O`, the negative logarithm of the IC50 (pIC50) in [1] was 7.33; with MOLM-13 (Homo sapiens, MOLM-13), 6.89. The half-life in data set [8] was found to be 2.25 h; in data set [9] it was 1.08 h.

Consider `Cc1c(-c2ccc(-c3ccccc3F)cc2)nc2ccc(F)cc2c1C(=O)N(C)O`, for which the negative logarithm of the IC50 (pIC50) was 8.11 in [1] and 5.29 in the data set with MOLM-13 (Homo sapiens, MOLM-13).
